Measured values reported in ChEMBL document CHEMBL4616651, “6-Deoxy- and 11-Hydroxytolypodiols: Meroterpenoids from the Cyanobacterium HT-58-2” (J Nat Prod, 2020).
Active and inactive are the calls of the source. The calls are words filed in the database; no cut-off is given here.

How the values were obtained:
[1] = system: Microglia; test: Antiinflammatory activity against LPS-induced rat Primary neonatal microglia assessed as inhibition in TXB2 generation preincubated for 20 mins followed by PMA-stimulation and measured after 70 mins by immunoassay; format: functional, cell-based
[2] = system: Microglia; test: Antiinflammatory activity against LPS-induced rat Primary neonatal microglia assessed as inhibition in superoxide anion generation preincubated for 20 mins followed by PMA-stimulation and measured after 70 mins by spectrophotometric method; format: functional, cell-based
[3] = system: Mus musculus; test: Antiinflammatory activity in mouse assessed as reduction in PMA induced ear edema topically administered per ear and measured after 200 mins; format: functional

SMILES | IC50 [1] | inhibition [2] | ED50 [3]
COC(=O)c1ccc2c(c1)C[C@H]1[C@]3(C)C[C@@H](O)[C@H]4C(C)(C)CC[C@@H](O)[C@]4(C)[C@H]3[C@@H](O)C[C@]1(C)O2 | 100 nM | inactive | 
CC(C(=O)O)c1ccc(-c2ccccc2)c(F)c1 (stereo not given) [FLURBIPROFEN] | 100 nM |  | 
C[C@]12CCC(=O)C=C1CC[C@@H]1[C@@H]2[C@@H](O)C[C@@]2(C)[C@H]1CC[C@]2(O)C(=O)CO [HYDROCORTISONE] |  |  | 20 µg
COC(=O)c1ccc2c(c1)C[C@H]1[C@]3(C)C[C@@H](O)[C@H]4C(C)(C)CC[C@@H](O)[C@]4(C)[C@H]3CC[C@]1(C)O2 [TOLYPODIOL] |  |  | 30 µg
